# Experimental data: patent publication US6060505A (priority 1999, dated 2000)
# Where two headings read alike, the source gives them in different places.
# Key:
# protein kinase C [1] = details: cited from earlier work
# [2] = tested on: B16/F10 melanoma cell line; assay: cells; type: cell-based; details: for cytostatic / cytotoxic effect: 3 uM
# Procedure: The effect of bryostatin 1 and phorbol 12-myristate 13-acetate (PMA) on the proliferation of the B16/F10 melanoma cell line was first determined. Bryostatin 1 inhibited [^3 H]thymidine incorporation with an ED50 of 600±80 nM (n=3) and with a maximum inhibition of 60% (FIG. 2A). […] The effect on cell growth of chronic treatment with bryostatin 1 or PMA was also determined. […] In contrast to bryostatin 1, PMA increased the cell growth by 75±10% (n=3) at a dose of 10 nM; the dose response curve was biphasic, with smaller effects at higher and lower applied doses (FIG. 2B).
# During the 4-day treatment schedule, the number of cells in the control group increased 80 to 100-fold.
# [3] = tested on: B16-F10 melanoma cell line; assay: chronic cell growth (cell proliferation) assay, 4 days; type: cell-based; details: for IC50: read-out: ED50, dose required to reduce cell growth by 50%, 5760 min
# Source text: FIG. 2B depicts the results of a chronic cell growth assay wherein the number of cells expressed as a percentage of a control sample (y-axis) are plotted as a function of the concentration (nM) of bryostatin 1 (squares), 26-epibryostatin 1 (circles), or PMA (triangles).
# (§1) The unmodified and C-26 modified bryostatins were used in [^3 H]thymidine incorporation and cell proliferation assays. The phorbol ester PMA, a ligand for protein kinase C was also used in this example to provide a separate control sample. The selection of PMA as a control sample is particularly appealing since bryostatins antagonize a subset of the actions of PMA. [^3 H]Thymidine incorporation is a measure of DNA synthesis, which is often used as a marker of cell replication. Chronic cell growth assays are an alternative measure of cell growth, usually performed over longer periods of time.
# For the cell proliferation assays, the B16-F10 melanoma cell line with high pulmonary metastatic potency (from the laboratory of Dr. I. J. Fidler, Frederick Cancer Research and Development Center, Frederick, Md.) were plated at a density of 10^3 cells/well in Costar 12-well tissue culture plates. The cells were then treated with different concentrations of bryostatin 1, 26-epi-bryostatin 1, or PMA in 0.1% DMSO 1 and 3 days after plating. Total cell number was determined 4 days after plating.
# [4] = tested on: B16/F10 melanoma cell line; assay: [3H]thymidine incorporation assay in melanoma cells (one day treatment); type: cell-based; details: for IC50: read-out: ED50, inhibition of [3H]thymidine incorporation
# Source text: FIG. 2A depicts the percentage of incorporation of [^3 H]thymidine relative to a control sample (y-axis) plotted as a function of the concentration (nM) of bryostatin 1 (squares) or 26-epibryostatin 1 (circles)
# as §1
# (§2) For [^3 H]-thymidine incorporation assays, melanoma cells growing in log phase at a density of 40-50% confluency were treated for one day with the indicated compound.
# C57BL/6 mice = assay: in vivo toxicity in C57BL/6 mice, 7 days observation
# Procedure: C57BL/6 mice were injected with either 500 ug/kg or 1500 ug/kg 26-epi-bryostatin 1 or 150 ug/kg or 500 ug/kg bryostatin 1.
# [5] = tested on: [3H]thymidine incorporation; assay: [3H]thymidine incorporation with or without bisindolyl-maleimide I; type: cell-based; details: for [3H]thymidine incorporation expressed as percent of control: bryostatin 1 or epi-bryostatin 1 3 uM
# Procedure: as §2
# (§3) Bisindolyl-maleimide I was used to inhibit both PMA and bryostatin 1 induced protein kinase C activity and bryostatin 1 induced inhibition of [^3 H]thymidine incorporation.
# The effect of bisindolyl-maleimide I cotreatment on induction of protein kinase C activity and [^3 H]thymidine incorporation in response to PMA or bryostatin 1.
# protein kinase C [6] = details: cited from earlier work; remark: listed apart in the source
# protein kinase C [7] = type: cell-based; details: for fold increase of protein kinase C activity: PMA 10 nM, bryostatin 1 3 uM, 10 min
# Procedure: as §3
# Protein kinase C activity was assayed in cell lysates by measuring the incorporation of ^32 P from [γ-^32 P]ATP into acetylated myelin basic protein peptide (4-14) (Ac-MBP(4-14)) by methods known in the art (Nakadate et al., Biochem. Pharmacol., 37, 1541-1545 (1988)). The cells were treated at 60-75% confluency with bryostatin 1, 26-epi-bryostatin 1 and/or bisindolyl-maleimide I for 10 min. The cells were lysed by sonication in 20 mM Tris-HCl, pH 7.4, containing 5 mM EGTA and 20 uM leupeptin. 5 ul of cell lysate was added to 15 ul kinase buffer (20 mM HEPES, pH 7.5, 10 mM MgCl2, 0.5 mM CaCl2, 1 mM 4-(2-aminoethyl)benzenesulfonyl fluoride, 20 uM leupeptin, and 10 ug/ml aprotinin) containing 50 uM substrate, and 2 uCi [γ-^32 P]ATP at a concentration 50 uM ATP. The kinase reaction was incubated for 10 minutes at 30 ° C. The incorporated radioactivity was measured with a Pharmacia Biotech 1218 liquid scintillation counter.
# humans = details: three infusions of 2 μg/kg; cited from earlier work
# mice = details: cited from earlier work
# [8] = tested on: lymphoma, renal cancer, melanoma, leukemia, and ovarian cancer; details: cited from earlier work
# [9] = with BIM-I (1 uM), PMA 10 nM, 1440 min
# [10] = without BIM-I, PMA 10 nM, 1440 min
smiles,measurement,setting,value
CCCC=CC=CC(=O)OC1C(=CC(=O)OC)CC2CC(C(C)O)OC(=O)CC(O)CC3CC(OC(C)=O)C(C)(C)C(O)(CC4CC(=CC(=O)OC)CC(C=CC(C)(C)C1(O)O2)O4)O3 (stereo not drawn) [26-epi-bryostatin 1],affinity for protein kinase C of 26-epi-bryostatin 1,protein kinase C [1]; compared with bryostatin 1,significantly reduced affinity
same,cytostatic / cytotoxic effect,[2],powerful cytostatic agent with no cytotoxic effect
same,cell death (trypan blue exclusion),"[2]; after treatment in the cell growth assay, 5760 min, 3 µM",less than 1%
same,growth arrest,"[3]; 3 uM, 4 days",almost complete growth arrest
same,"inhibition of cell growth (maximal, highest dose tested)","[3]; 4 days, 3 uM",97±3%
same,"maximum extent of inhibition relative to bryostatin 1, cell growth",[3]; compared with bryostatin 1,greater than for bryostatin 1
same,"reduction in potency relative to bryostatin 1, chronic cell growth assay",[3]; compared with bryostatin 1,3 fold
same,IC50,"[3]; chronic treatment, 4 days",140 ± 30 nM
same,maximum inhibition of [3H]thymidine incorporation,"[4]; B16/F10 melanoma, highest dose tested 3 uM",80±5%
same,"inhibitory potency relative to bryostatin 1, [3H]thymidine incorporation",[4]; compared with bryostatin 1,inhibitory potency similar to that of bryostatin 1
same,"maximum extent of inhibition relative to bryostatin 1, [3H]thymidine incorporation",[4]; compared with bryostatin 1,greater than for bryostatin 1
same,IC50,"[4]; B16/F10 melanoma, one day, 1440 min",600 ± 120 nM
same,toxicity,C57BL/6 mice; 500 ug/kg injected,only relatively minor toxic effects
same,toxicity,C57BL/6 mice; 1500 ug/kg injected,only relatively minor toxic effects
same,therapeutic index relative to bryostatin 1,C57BL/6 mice; compared with bryostatin 1,higher therapeutic index
same,toxicity relative to bryostatin 1,C57BL/6 mice; compared with bryostatin 1,significantly less toxic than bryostatin 1
same,[3H]thymidine incorporation expressed as percent of control,[5]; [9],20 ± 5% of control
same,[3H]thymidine incorporation expressed as percent of control,[5]; [10],21 ± 3% of control
"CN(C)CCCn1cc(C2=C(c3c[nH]c4ccccc34)C(=O)NC2=O)c2ccccc21 [BIM-I, bisindolyl-maleimide I]",effect on PMA-induced increase in [3H]thymidine incorporation,"[5]; BIM-I 1 uM, PMA 10 nM",inhibited the modest PMA-induced increase
same,effect on bryostatin induced decrease in thymidine incorporation,"[5]; BIM-I 1 uM, bryostatin 1 3 uM",slightly enhanced
same,effect on inhibition of thymidine incorporation by bryostatin 1,"[5]; BIM-I 1 uM, bryostatin 1 3 uM",did not block
same,[3H]thymidine incorporation expressed as percent of control,"[5]; with BIM-I (1 uM), PMA 10 nM",91 ± 2% of control
same,protein kinase C inhibition,protein kinase C [6],powerful and specific protein kinase C inhibitor
same,inhibition of PMA or bryostatin 1 induced protein kinase C enzymatic activity,"protein kinase C [7]; BIM-I 1 uM, PMA 10 nM or bryostatin 1 3 uM",completely inhibited
CCC/C=C/C=C/C(=O)O[C@H]1/C(=C/C(=O)OC)C[C@H]2C[C@H]([C@@H](C)OC(C)=O)OC(=O)C[C@H](O)C[C@@H]3C[C@H](OC(C)=O)C(C)(C)[C@](O)(C[C@@H]4C/C(=C/C(=O)OC)C[C@H](/C=C/C(C)(C)[C@]1(O)O2)O4)O3 [C-26 acetate ester of bryostatin],binding activity / affinity for protein kinase C,protein kinase C [1],decreased binding activity
CCCC(=O)O[C@H]1/C(=C/C(=O)OC)C[C@H]2C[C@H]([C@H](C)O)OC(=O)C[C@H](O)C[C@@H]3C[C@H](OC(=O)C(C)(C)C)C(C)(C)[C@](O)(C[C@@H]4C/C(=C/C(=O)OC)C[C@H](/C=C/C(C)(C)[C@]1(O)O2)O4)O3 [C-26 epimer of bryostatin 4],binding activity / affinity for protein kinase C,protein kinase C [1],decreased binding activity
"CCCCCCCCCCCCCC(=O)O[C@@H]1[C@@H](C)[C@@]2(O)[C@@H](C=C(CO)C[C@]3(O)C(=O)C(C)=C[C@@H]23)[C@@H]2C(C)(C)[C@]12OC(C)=O [PMA, phorbol 12-myristate 13-acetate]",activation at 0.01 µM,"[3]; Mus musculus, B16-F10, 96 h, 10 nM, chronic treatment, read-out: increase in cell growth",75 ± 10%
same,dose response curve of cell growth,[3]; smaller effects at higher and lower applied doses than 10 nM,biphasic
same,activity at 0.01 µM,"[4]; Mus musculus, B16-F10, 24 h, 10 nM, read-out: [3H]thymidine incorporation (slight increase)",120 ± 20%
same,effect on [3H]thymidine incorporation,[4]; dose range between 0.1 nM to 3 uM,no significant effect
same,[3H]thymidine incorporation expressed as percent of control,"[5]; with BIM-I (1 uM), PMA 10 nM",98 ± 11% of control
same,[3H]thymidine incorporation expressed as percent of control,"[5]; without BIM-I, PMA 10 nM",120 ± 22% of control
same,fold increase of protein kinase C activity,protein kinase C [7]; with BIM-I (1 uM),1.08 ± 0.1 fold
same,fold increase of protein kinase C activity,protein kinase C [7]; without BIM-I,4.4 ± 0.1 fold
CCCC=CC=CC(=O)OC1C(=CC(=O)OC)CC2CC(C(C)O)OC(=O)CC(O)CC3CC(OC(C)=O)C(C)(C)C(O)(CC4CC(=CC(=O)OC)CC(C=CC(C)(C)C1(O)O2)O4)O3 (centres unmarked) [bryostatin 1],side-effects,humans,significant side-effects including myalgia and hypotension
same,lethal dose,mice,greater than 200 μg/kg
same,cytostatic / cytotoxic effect,[2],arrested growth rather than killed cells
same,cytotoxicity at 3 µM,"[2]; Mus musculus, B16-F10, 96 h, after treatment in the cell growth assay, read-out: cell death (trypan blue exclusion)",< 1%
same,"inhibition of cell growth (maximal, highest dose tested)","[3]; 4 days, 3 uM",75±5%
same,IC50,"[3]; chronic treatment, 4 days",50 ± 15 nM
same,inhibition at 3 µM,"[4]; Mus musculus, B16-F10, 3 h, read-out: maximum inhibition of [3H]thymidine incorporation, B16/F10 melanoma, highest dose tested 3 uM",60%
same,IC50,"[4]; Mus musculus, B16-F10, 24 h",600 ± 80 nM
same,toxicity,C57BL/6 mice; 150 ug/kg injected,only relatively minor toxic effects
same,"toxicity, lethality",C57BL/6 mice; 500 ug/kg bryostatin 1 injected,lethal for all animals tested by the third day after injection
same,antineoplastic effectiveness,[8],directly shown to be effective
same,inhibition of [3H]thymidine incorporation of bryostatin 1 plus bisindolyl-maleimide I relative to 26-epi-bryostatin 1 alone,[5]; combination with BIM-I,same level of inhibition
same,[3H]thymidine incorporation expressed as percent of control,[5]; [9],25 ± 5% of control
same,[3H]thymidine incorporation expressed as percent of control,[5]; [10],43 ± 2% of control
same,fold increase of protein kinase C activity,protein kinase C [7]; with BIM-I (1 uM),1.07 ± 0.04 fold
same,fold increase of protein kinase C activity,protein kinase C [7]; without BIM-I,3.02 ± 0.3 fold
